# Measured values taken from US8173668B1 (Alcon Research, Ltd., priority 2007, dated 2012).
# How the values were obtained:
# [1] = tested on: hypertensive eyes of cynomolgus monkeys; test: IOP in lasered (hypertensive) eyes of cynomolgus monkeys, single dose (FIG. 9); type: in vivo; conditions: IOP at 8, 25 and 27.5 hours
# Experimental: Hours 5 and 8 were conscious IOPs. Hours 25 and 27.5 were made under sedation. […] Error bars indicate standard deviations.
# Intraocular pressure (IOP) was determined with an Alcon Pneumatonometer (Alcon Laboratories, Inc., Fort Worth, Tex.) after light corneal anesthesia with 0.1% proparacaine. Right eyes were hypertensive as a result of laser trabeculoplasty. After a baseline IOP measurement, FR-190997 was instilled in the right eyes only of 12 cynomolgus monkeys. Vehicle was instilled in the right eyes of 5-6 additional animals. Subsequent IOP measurements were taken at 8, 25, and 27.5 hours. IOP measurements are also taken on left eyes (normotensive and untreated) at each of these time points. The percent change in IOP from baseline was determined for each animal for every IOP measurement (Sharif et al. J. Ocular Pharmacol. Ther. 17: 305-317, 2001; May et al., J Pharmacol Exp Ther. 306: 301-309, 2003; Sharif et al. Invest. Ophthalmol. Vis. Res. 47: 4001-4010, 2006). Group mean and standard error of the mean (SEM) were calculated for each time point.
# [2] = tested on: anterior eye segments of pig eyes; test: Outflow facility in perfused anterior eye segments; conditions: 1 μM, perfused porcine anterior eye segments, n=5; FIG. 8
# Experimental: Anterior eye segments obtained from postmortem porcine eyes were used to study the effects of non-peptide agonists on fluid outflow through the trabecular meshwork and Schlemms' canal (Erickson-Lamey et al., Curr. Eye Res. 7: 799-807, 1988; Vaajanen et al. J. Ocular Pharmacol. Ther. 23: 124-131, 2007). The postmortem eyes were placed in DMEM containing 50 U/ml penicillin, 50 μg/mL streptomycin, and 5 μg/mL amphotericin B prior to dissection under sterile conditions. Eyes were bisected at the to equator and the anterior chamber transferred to a petri dish. The lens was removed and the remaining choroid, iris, and ciliary body gently teased away. […] Perfusion pressure for standard perfusion was maintained at a constant level of 10 mmHg, and rate of fluid outflow monitored continuously (i.e. by means of a Model ACCU 124 analytical balance; Fisher Scientific, Pittsburgh, Pa.) throughout the experiment. The rate of fluid flow was recorded by a computer utilizing Collect XL software (Lab Tronics, Inc; Guelph, Ontario, Canada). Outflow facility was calculated as the ratio of flow rate to perfusion pressure (μL/min/mmHg).
# Preparations were allowed to stabilize overnight (14-16 hr), and baseline facilities were then recorded for 40-60 min. […]
# [3] = biological target: human cloned B2-receptors (Homo sapiens, UniProt P30411); test: HTRF-based assay of endogenous IP1 production in CHO cells; type: cell-based; conditions: CHO cells expressing human cloned B2-receptors, read-out: EC50, production of endogenous IP1 from PI turnover
# Experimental: The cells are suspended in IP1 stimulation buffer containing Hepes 10 mM, CaCl2 1 mM, MgCl2 0.5 mM, KCl 4.2 mM, NaCl 146 mM, Glucose 5.5 mM, LiCl 50 mM pH 7.4, then distributed in microplates at a density of 40,000 cells/well (B2 receptor assays) or 30,000 cells/well (B1 receptor assays). Test compounds are added to the cells at various concentrations and incubated for 20 min at 37° C. […] Following the 20 min incubation at 37° C., the cells are lysed and the fluorescence acceptor (D2-labeled IP1) and fluorescence donor (anti-IP1 antibody labeled with europium cryptate) are added. After 60 min at room temperature, the fluorescence transfer is measured at λex=337 nm and λem=620 and 665 nm using a microplate reader.
# [4] = tested on: Human trabecular meshwork (TM) cells; test: PGE2 production (RIA) in human trabecular meshwork cells; type: cell-based; conditions: 1 h at 37° C., BK 100 nM or 1 μM, fluprostenol 1 μM, non-peptide agonists 1 μM or 10 μM, FIG. 6
# Experimental: The ability of BK agonists to stimulate prostaglandin E2 (PGE2) production was examined as follows. Human trabecular meshwork (TM) cells were seeded in culture plates and allowed to reach confluence. […] Fluprostenol was used as a positive control. After this time the assay was terminated by placing the assay plates on ice and by the addition of 100 μL of a cell-lysis reagent supplied with the PGE2 radioimmunoassay (RIA) kit (Amersham Pharmacia Biotech, Arlington Heights, Ill.). All reagents and standards supplied in the RIA kit were prepared and the RIA performed according to the manufacturer's instructions. Assay buffer, diluted prostaglandin E2 (PGE2) standard and supernatant from the cell-based experiment (diluted 1:100 v/v) were then pipetted into appropriate tubes as specified in the kit instructions. […]
# (§1) After this incubation, all tubes were placed in an ice-bath and 1 ml cold precipitating reagent supplied in the kit was added to the tubes, the content mixed and incubated for 25 min at 4° C. […] The supernatants of all tubes were decanted as specified in the kit instructions and the RIA samples analyzed on a gamma-counter. The levels of PGE2 generated by the test agent were then quantified in comparison with the PGE2-standard curve. Dose-response data for the test agent were constructed and the potency and intrinsic activity determined as described above for other assays.
# h-CM cells = test: Prostaglandin production in h-CM cells; type: cell-based, human; conditions: 1-10 μM
# Experimental: A functional assay to discover BK agonists may involve the measurement of prostaglandin E2 (PGE2) production (Wiernas et al. Brit. J. Pharmacol. 123: 1127-1137, 1998), for instance, in cells isolated from human or animal ocular or non-ocular tissues, or cells expressing recombinant (preferably human) BK receptors. Cells expressing BK receptors are seeded in 48-wells culture plates and allowed to reach confluence. After this time the cells are rinsed twice with 0.5 mL of phosphate buffered saline and incubated with the test agent made up in 0.5 mL Dulbeco's modified Eagle's medium (DMEM)/F-12 for 1 h at 37° C. […]
# as §1, with “are” for “were”, “is” for “was”, “assays. […]” for “assays.”
# Chain of human cloned B2-receptors (P30411 whole entry): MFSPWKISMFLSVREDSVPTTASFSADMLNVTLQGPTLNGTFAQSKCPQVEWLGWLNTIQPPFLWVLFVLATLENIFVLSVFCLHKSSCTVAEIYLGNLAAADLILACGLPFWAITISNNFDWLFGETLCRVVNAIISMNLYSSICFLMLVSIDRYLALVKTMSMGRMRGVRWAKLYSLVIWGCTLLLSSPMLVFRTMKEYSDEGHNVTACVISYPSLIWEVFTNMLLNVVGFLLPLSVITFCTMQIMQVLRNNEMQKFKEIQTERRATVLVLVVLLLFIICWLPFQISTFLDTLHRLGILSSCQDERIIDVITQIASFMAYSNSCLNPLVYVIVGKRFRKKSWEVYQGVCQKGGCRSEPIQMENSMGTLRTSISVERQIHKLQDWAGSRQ
structure (smiles),measurement,setting,value
CNC(=O)c1ccc(/C=C/C(=O)NCC(=O)N(C)c2ccc(Cl)c(COc3cccc4c(OCc5ccccn5)cc(C)nc34)c2Cl)cc1 [FR-190997],effect on IOP compared with vehicle,[1],lowered IOP compared with vehicle
same,outflow facility,[2],increased the outflow facility flow
same,EC50,[3],21 nM
same,production of endogenous prostaglandins (PGE2),[4],stimulated production of endogenous prostaglandins
same,production of prostaglandins,h-CM cells,1.75 fold above basal
